From the NIST ThermoML archive (doi:10.1016/j.jct.2006.05.008)
± gives the expanded uncertainty stated by the source.

Assay: molar heat capacity at constant pressure; wn = mass fraction of the nth substance listed
Conditions: Small (less than 1 g) adiabatic calorimetry

CCCCn1cc[n+](C)c1.[Br-] [1-butyl-3-methylimidazolium bromide] + O
Crystal
Conditions	molar heat capacity at constant pressure [J/K/mol]
257.1 K, w2 = 0.0169	211.52 ± 1.1
257.12 K, w2 = 0.00482	207.32 ± 1
257.24 K, w2 = 0.0495	210.08 ± 1
257.33 K, w2 = 0.0051	208.6 ± 1
257.89 K, w2 = 0.00482	208.45 ± 1
258.27 K, w2 = 0.0051	209.35 ± 1
258.32 K, w2 = 0.00482	208.23 ± 1
258.68 K, w2 = 0.00482	208.41 ± 1
258.78 K, w2 = 0.0169	213.4 ± 1.1
259.16 K, w2 = 0.0169	213.8 ± 1.1
259.51 K, w2 = 0.0495	213.48 ± 1.1
259.61 K, w2 = 0.0051	210.47 ± 1
259.93 K, w2 = 0.0051	210.82 ± 1
259.98 K, w2 = 0.00482	210.49 ± 1
260.24 K, w2 = 0.00482	209.97 ± 1
260.65 K, w2 = 0.00482	210.2 ± 1
260.87 K, w2 = 0.0169	215.76 ± 1.1
260.94 K, w2 = 0.0051	211.8 ± 1.1
261.22 K, w2 = 0.0169	216.33 ± 1.1
261.77 K, w2 = 0.0495	217.08 ± 1.1
262.06 K, w2 = 0.00482	211.93 ± 1
262.28 K, w2 = 0.0051	212.88 ± 1.1
262.52 K, w2 = 0.0051	213.06 ± 1.1
262.95 K, w2 = 0.0169	218.39 ± 1.1
262.98 K, w2 = 0.00482	212.09 ± 1
263.28 K, w2 = 0.0169	218.78 ± 1.1
263.78 K, w2 = 0.0051	214.35 ± 1.1
264.01 K, w2 = 0.0495	220.81 ± 1.1
264.14 K, w2 = 0.00482	213.82 ± 1.1
265.04 K, w2 = 0.0169	221.03 ± 1.1
265.12 K, w2 = 0.0051	215.36 ± 1.1
265.24 K, w2 = 0.0051	215.65 ± 1.1
265.32 K, w2 = 0.00482	214.05 ± 1.1
265.34 K, w2 = 0.0169	221.47 ± 1.1
266.23 K, w2 = 0.0495	224.56 ± 1.1
266.24 K, w2 = 0.00482	216.31 ± 1.1
266.58 K, w2 = 0.0051	216.86 ± 1.1
267.13 K, w2 = 0.0169	223.7 ± 1.1
267.4 K, w2 = 0.0169	224.14 ± 1.1
267.66 K, w2 = 0.00482	216.04 ± 1.1
267.71 K, w2 = 0.0051	217.69 ± 1.1
268.43 K, w2 = 0.0495	228.48 ± 1.1
269.22 K, w2 = 0.0169	226.58 ± 1.1
269.45 K, w2 = 0.0169	226.98 ± 1.1
270 K, w2 = 0.00482	218.06 ± 1.1
270.31 K, w2 = 0.0051	220.13 ± 1.1
270.61 K, w2 = 0.0495	232.41 ± 1.1
271.3 K, w2 = 0.0169	229.49 ± 1.1
271.51 K, w2 = 0.0169	229.82 ± 1.1
272.34 K, w2 = 0.00482	220.16 ± 1.1
272.91 K, w2 = 0.0051	222.62 ± 1.1
273.18 K, w2 = 0.0495	242 ± 1.2
273.57 K, w2 = 0.0169	232.77 ± 1.1
275.36 K, w2 = 0.00482	223.11 ± 1.1
275.51 K, w2 = 0.0051	225.17 ± 1.1
275.62 K, w2 = 0.0169	235.94 ± 1.1
276.24 K, w2 = 0.0495	247.28 ± 1.2
277.2 K, w2 = 0.00482	225.01 ± 1.1
278.11 K, w2 = 0.0051	227.74 ± 1.1
279.23 K, w2 = 0.0169	242.23 ± 1.2
279.26 K, w2 = 0.0495	254.65 ± 1.2
279.32 K, w2 = 0.00482	227.27 ± 1.1
279.78 K, w2 = 0.00482	229.54 ± 1.1
280.71 K, w2 = 0.0051	230.48 ± 1.1
281.42 K, w2 = 0.00482	229.46 ± 1.1
282.24 K, w2 = 0.0495	262.55 ± 1.3
283.31 K, w2 = 0.0051	233.23 ± 1.1
283.5 K, w2 = 0.00482	230.68 ± 1.1
284.39 K, w2 = 0.0169	251.43 ± 1.2
285.17 K, w2 = 0.0495	271.18 ± 1.3
285.58 K, w2 = 0.00482	233.7 ± 1.1
285.91 K, w2 = 0.0051	236.24 ± 1.1
287.66 K, w2 = 0.00482	235.67 ± 1.1
288.14 K, w2 = 0.0495	280.22 ± 1.3
288.51 K, w2 = 0.0051	239.25 ± 1.2
289.53 K, w2 = 0.0169	262.01 ± 1.3
289.74 K, w2 = 0.00482	238.04 ± 1.1
290.97 K, w2 = 0.0495	290.4 ± 1.4
291.11 K, w2 = 0.0051	242.54 ± 1.2
291.83 K, w2 = 0.00482	240.73 ± 1.2
293.7 K, w2 = 0.0051	246.11 ± 1.2
293.74 K, w2 = 0.0495	300.57 ± 1.4
293.9 K, w2 = 0.00482	243.2 ± 1.2
294.65 K, w2 = 0.0169	274.42 ± 1.3
295.05 K, w2 = 0.00482	246.53 ± 1.2
295.98 K, w2 = 0.00482	245.88 ± 1.2
296.3 K, w2 = 0.0051	249.8 ± 1.2
296.46 K, w2 = 0.0495	310.98 ± 1.4
298.06 K, w2 = 0.00482	248.83 ± 1.2
298.89 K, w2 = 0.0051	253.84 ± 1.2
299.11 K, w2 = 0.0495	321.36 ± 1.5
299.76 K, w2 = 0.0169	289.83 ± 1.4
300.14 K, w2 = 0.00482	252.27 ± 1.2
301.49 K, w2 = 0.0051	258.28 ± 1.2
301.7 K, w2 = 0.0495	332.6 ± 1.5
303.76 K, w2 = 0.00482	260.04 ± 1.2
304.07 K, w2 = 0.0051	263.07 ± 1.2
304.21 K, w2 = 0.0495	344.68 ± 1.6
306.66 K, w2 = 0.0051	268.79 ± 1.3
306.66 K, w2 = 0.0495	358.21 ± 1.6
309.04 K, w2 = 0.0495	371.9 ± 1.7
309.23 K, w2 = 0.0051	274.95 ± 1.3
311.81 K, w2 = 0.0051	281.91 ± 1.3
314.38 K, w2 = 0.0051	289.81 ± 1.4

101 kPa, Liquid
Conditions	molar heat capacity at constant pressure [J/K/mol]
258.42 K, w2 = 0.0495	201.89 ± 1
260.51 K, w2 = 0.0495	202.44 ± 1
262.59 K, w2 = 0.0495	203.15 ± 1
264.68 K, w2 = 0.0495	203.66 ± 1
266.76 K, w2 = 0.0495	204.28 ± 1
268.85 K, w2 = 0.0495	204.83 ± 1
271.36 K, w2 = 0.0495	205.69 ± 1
274.29 K, w2 = 0.0495	206.48 ± 1
277.23 K, w2 = 0.0495	207.26 ± 1
280.16 K, w2 = 0.0495	208.13 ± 1
283.1 K, w2 = 0.0495	209.06 ± 1
286.03 K, w2 = 0.0495	209.95 ± 1
288.97 K, w2 = 0.0495	210.91 ± 1
291.91 K, w2 = 0.0495	211.72 ± 1
294.84 K, w2 = 0.0495	212.72 ± 1
297.78 K, w2 = 0.0495	213.47 ± 1.1
300.72 K, w2 = 0.0495	214.41 ± 1.1
303.65 K, w2 = 0.0495	215.41 ± 1.1
306.59 K, w2 = 0.0495	216.44 ± 1.1
309.53 K, w2 = 0.0495	217.39 ± 1.1
312.47 K, w2 = 0.0495	218.35 ± 1.1
315.41 K, w2 = 0.0495	219.31 ± 1.1
321.27 K, w2 = 0.0495	221.21 ± 1.1
330.56 K, w2 = 0.0495	224.12 ± 1.1
333.86 K, w2 = 0.0495	225.96 ± 1.1
337.13 K, w2 = 0.0495	227.18 ± 1.1
340.39 K, w2 = 0.0495	228.38 ± 1.1
343.64 K, w2 = 0.0495	229.51 ± 1.1
346.87 K, w2 = 0.0495	230.63 ± 1.1
350.08 K, w2 = 0.0495	232.05 ± 1.1
352.35 K, w2 = 0.0169	289.81 ± 1.4
353.26 K, w2 = 0.0495	232.65 ± 1.1
355.87 K, w2 = 0.0051	320.97 ± 1.5
356.41 K, w2 = 0.0495	233.93 ± 1.1
357.85 K, w2 = 0.00482	320.3 ± 1.5
358.14 K, w2 = 0.0169	293.37 ± 1.4
358.58 K, w2 = 0.0051	322.63 ± 1.5
361.53 K, w2 = 0.0495	236.39 ± 1.1
363.43 K, w2 = 0.0169	295.6 ± 1.4
364.71 K, w2 = 0.0495	237.6 ± 1.2
367.1 K, w2 = 0.00482	323.63 ± 1.5
367.89 K, w2 = 0.0495	238.53 ± 1.2
